Tested on: Grm2
Experiment: AAV-delivered TALE / LITE modulation of Grm2 mRNA in primary cortical neurons, qRT-PCR
Type: cell-based, mouse
Details: neurons expressing only one LITE component
Experimental: FIG. 18 depicts metabotropic glutamate receptor 2 (mGlur2) LITE activity in mouse cortical neuron culture. A mGluR2 targeting LITE was constructed via the plasmids pAAV-human Synapsin I promoter (hSyn)-HA-TALE(mGluR2)-CIB1 and pAAV-hSyn-CRY2PHR-VP64-2A-GFP. These fusion constructs were then packaged into adeno associated viral vectors (AAV). Additionally, AAV carrying hSyn-TALE-VP64-2A-GFP and GFP only were produced. Embryonic mouse (E16) cortical cultures were plated on Poly-L-lysine coated 24 well plates. After 5 days in vitro neural cultures were co-transduced with a mixture of TALE(mGluR2)-CIB1 and CRY2PHR-VP64 AAV stocks. Control samples were transduced with either TALE(mGluR2)-VP64 AAV or GFP AAV. 6 days after AAV transduction, experimental samples were stimulated using either of two light pulsing paradigms: 0.5 s per min and 0.25 sec per 30 sec. Neurons were stimulated for 24 h and harvested for qPCR analysis. All mGluR2 expression levels were normalized to the respective stimulated GFP control. […]
Light stimulation was started 6 days after AAV transduction (DIV 11) with an intensity of 5 mW/cm^2, duty cycle of 0.8% (250 ms pulses at 0.033 Hz or 500 ms pulses at 0.016 Hz), 466 nm blue light for 24 h unless indicated otherwise in figure legends. […] Relative mRNA levels were measured by quantitative real-time PCR (qRT-PCR) using TaqMan probes as described above for Neuro 2a cells. […]

**Q.** “CRY2PHR-VP64: LITE effector component alone” was tested. Which “Grm2 mRNA versus GFP controls, single LITE component” value did it give?
**A.** did not significantly affect transcription

Source: patent US20190203212A1, “INDUCIBLE DNA BINDING PROTEINS AND GENOME PERTURBATION TOOLS AND APPLICATIONS THEREOF” (Massachusetts Institute of Technology, priority 2013, published 2019)
